Literature values as cited in patent US20140154346A1, “USE OF FENUGREEK EXTRACT TO ENHANCE FEMALE LIBIDO” (GE NUTRIENTS, INC., priority 2012, published 2014).

Test system: women with hypoactive sexual disorder
Details: 300 μg/day, 12 months; also increase in desire and decrease in stress

Question: For C[C@]12CC[C@H]3[C@@H](CCC4=CC(=O)CC[C@@]43C)[C@@H]1CC[C@@H]2O [testosterone], which “frequency of satisfying sexual encounters” value is on record?
Answer: Its value is “increased frequency”.
